According to patent US7205298B2, “Substituted triazine kinase inhibitors” (Janssen Pharmaceutica N.V., priority 2002, dated 2007):
Where “and” joins values, the source holds several entries; their conditions need not be identical. Identical values can stand only once.

Experiments:
Casein Kinase 2 = biological target: T1, Casein Kinase 2 (Homo sapiens, UniProt P68400); assay: Kinase selectivity assay Casein Kinase 2; assay type: biochemical
T1 construct: purchased New England Biolabs 6010; host or cells: E. coli
Procedure: (§1) Assays to test compound inhibition of other kinases were preformed using methods that measure the amount of phosphorylation of a biotinylated peptide substrate. Biotinylated peptide substrates were selected from the literature as appropriate for the enzyme being evaluated. The general procedure used to assay for kinase activity is as follows: a kinase reaction mix was prepared in 50 mM Tris-HCl pH=8, 10 mM MgCl2, 0.1 mM Na3VO4, 1 mM DTT, 10 μM ATP, 0.25–1 μM biotinylated peptide substrate, 0.2–0.8 μCuries per well ^33P-γ-ATP (2000–3000 Ci/mmol). Assay conditions vary slightly for each protein kinase, for example, insulin receptor kinase requires 10 mM MnCl2 for activity and Calmodulin-dependent protein kinase requires calmodulin and 2 mM CaCl2. The reaction mixture was dispensed into the wells of a streptavidin coated Flashplate and 1 μL test compound in 100% DMSO was added to a 100 μL reaction volume resulting in a final concentration of 1% DMSO in the reaction. Enzyme was diluted in 50 mM Tris-HCl pH=8.0, 0.1% BSA and added to each well. The reaction was incubated for one hour at 30° C. in the presence of a test compound. […] The plate was read on a scintillation counter to determine ^33P-γ-ATP incorporated into the immobilized peptide substrate. […] A maximum and minimum signal for the assay was determined on each plate. […]

Protein Kinase A = biological target: T2, Protein Kinase A (Bos taurus, UniProt P00517); assay: Kinase selectivity assay Protein Kinase A; assay type: biochemical, bovine
T2 construct: purified from bovine heart; purchased Upstate Biotech 14-114; host or cells: bovine heart (tissue)
Procedure: as §1

[1] = biological target: T3, VEGF-R (rat VEGF-R2 kinase domain) (Rattus norvegicus, UniProt O08775); assay: VEGF-R Screening Assay; assay type: biochemical
T3 construct: 6xHis (polyhistidine) (N)
Procedure: A kinase reaction mixture was prepared containing 50 mM Tris-HCl pH=8, 10 mM MgCl2, 0.1 mM Na3PO4, 1 mM DTT, 10 μM ATP, 0.025 μM biotinylated peptide substrate (also referred to herein as PLC-1 biotinylated peptide substrate and PDGF receptor substrate, sequence provided in the peptide substrate table) and 0.8 μCuries per well ^33P-γ-ATP (2000–3000 Ci/mmol). 70 μL of the kinase reaction mixture was dispensed into the well of a streptavidin coated FlashPlate™ (Cat. # SMP103, NEN, Boston, Mass.). Then 1 μL of test compound stock in 100% DMSO was added to the wells resulting in a final concentration of 1% DMSO in the reaction with a 100 μL final reaction volume. Next, soluble rat VEGF tyrosine kinase containing an N-terminal 6XHIS tag was diluted in 50 mM Tris-HCl pH=8.0, 0.1% BSA at a concentration of 5 ng per μL and 30 μL (150 ng enzyme per test well) was added to each well to initiate the reaction. The reaction was incubated for one hour at 30° C. At the end of the 1-hour incubation, the reaction was terminated by aspirating the reaction mixture from the plate and washing the wells twice with PBS containing 100 mM EDTA. The PLC1 biotinylated peptide substrate became immobilized on the Flashplate™ and the incorporation of ^33P-γ-ATP was measured by reading the plate on a scintillation counter. Inhibition of the enzymatic activity of the VEGF-R was measured by observing a reduced amount of ^33P-γ-ATP incorporated into the immobilized peptide.
Assays to test compound inhibition of other kinases were preformed using methods that measure the amount of phosphorylation of a biotinylated peptide substrate. Biotinylated peptide substrates were selected from the literature as appropriate for the enzyme being evaluated. The general procedure used to assay for kinase activity is as follows: a kinase reaction mix was prepared in 50 mM Tris-HCl pH=8, 10 mM MgCl2, 0.1 mM Na3VO4, 1 mM DTT, 10 μM ATP, 0.25–1 μM biotinylated peptide substrate, 0.2–0.8 μCuries per well ^33P-γ-ATP (2000–3000 Ci/mmol). Assay conditions vary slightly for each protein kinase, for example, insulin receptor kinase requires 10 mM MnCl2 for activity and Calmodulin-dependent protein kinase requires calmodulin and 2 mM CaCl2. The reaction mixture was dispensed into the wells of a streptavidin coated Flashplate and 1 μL test compound in 100% DMSO was added to a 100 μL reaction volume resulting in a final concentration of 1% DMSO in the reaction. Enzyme was diluted in 50 mM Tris-HCl pH=8.0, 0.1% BSA and added to each well. The reaction was incubated for one hour at 30° C. in the presence of a test compound. After one hour the reaction mix was aspirated from the plate and the plate was washed with PBS containing 100 mM EDTA. The plate was read on a scintillation counter to determine ^33P-γ-ATP incorporated into the immobilized peptide substrate. Test compounds were assayed in duplicate at 8 concentrations (100 μM, 10 μM, 1 μM, 100 nM, 10 nM, 1 nM, 100 pM, 10 pM). A maximum and minimum signal for the assay was determined on each plate. […] Known inhibitor compounds appropriate for the kinase being assayed were also included on each plate.
The form of VEGF-R (vascular endothelial growth factor receptor-2) used was a fusion protein containing a polyhistidine tag at the N-terminus followed by amino acids 786–1343 of the rat VEGF-R2 kinase domain (GenBank Accession #U93306). The form of CDK1 (cyclin dependent kinase 1) used was isolated from insect cells expressing both the human CDK1 catalytic subunit and its positive regulatory subunit cyclin B (CDK1:cyclin B protein, New England Biolabs, Beverly, Mass., Cat. #6020). The form of CDK4 (cyclin dependent kinase 4) used contains amino acids 769 to 921 of the mouse […] protein found in the GST-retinoblastoma protein construct (Santa Cruz Biotechnology, Santa Cruz, Calif.; Cat. #SC-4112). The form of EGF-R1 (epidermal growth factor receptor 1) used was purified from human A431 cell membranes (Sigma, St. Louis, Mo., Cat.# E3641). […]

Insulin Receptor Kinase = biological target: T4, Insulin Receptor Kinase (Homo sapiens, UniProt P06213); assay: Kinase selectivity assay Insulin Receptor Kinase; assay type: biochemical
T4 construct: consists of residues 941–1313 of the cytoplasmic domain of the beta-subunit of the human insulin receptor; purchased BIOMOL SE-195
Procedure: as §1

T3 sequence (O08775 786-1343): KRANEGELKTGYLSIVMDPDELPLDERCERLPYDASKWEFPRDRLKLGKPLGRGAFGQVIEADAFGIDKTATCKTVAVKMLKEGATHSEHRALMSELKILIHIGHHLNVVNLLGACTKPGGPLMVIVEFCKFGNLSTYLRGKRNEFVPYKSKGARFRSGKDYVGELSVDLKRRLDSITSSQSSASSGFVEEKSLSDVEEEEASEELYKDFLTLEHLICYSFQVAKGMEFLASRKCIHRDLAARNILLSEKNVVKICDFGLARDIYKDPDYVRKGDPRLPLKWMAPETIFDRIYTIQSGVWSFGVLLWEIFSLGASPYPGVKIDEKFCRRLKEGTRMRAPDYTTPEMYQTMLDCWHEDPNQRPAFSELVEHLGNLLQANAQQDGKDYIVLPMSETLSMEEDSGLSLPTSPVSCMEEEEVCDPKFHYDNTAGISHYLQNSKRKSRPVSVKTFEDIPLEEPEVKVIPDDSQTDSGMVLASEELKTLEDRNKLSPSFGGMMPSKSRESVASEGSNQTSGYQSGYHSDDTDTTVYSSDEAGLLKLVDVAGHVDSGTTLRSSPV
T4 sequence (P06213 980-1352): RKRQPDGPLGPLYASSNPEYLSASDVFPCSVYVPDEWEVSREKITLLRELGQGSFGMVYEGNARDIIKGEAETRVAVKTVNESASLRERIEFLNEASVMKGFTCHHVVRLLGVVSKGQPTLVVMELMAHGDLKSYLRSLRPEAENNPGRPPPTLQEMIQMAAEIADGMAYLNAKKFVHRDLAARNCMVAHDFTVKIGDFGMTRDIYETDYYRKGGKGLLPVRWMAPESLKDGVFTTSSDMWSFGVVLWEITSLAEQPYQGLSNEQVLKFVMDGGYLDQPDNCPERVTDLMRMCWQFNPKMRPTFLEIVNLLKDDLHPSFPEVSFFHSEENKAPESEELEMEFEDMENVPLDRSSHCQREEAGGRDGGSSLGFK
T1 sequence (P68400 whole entry): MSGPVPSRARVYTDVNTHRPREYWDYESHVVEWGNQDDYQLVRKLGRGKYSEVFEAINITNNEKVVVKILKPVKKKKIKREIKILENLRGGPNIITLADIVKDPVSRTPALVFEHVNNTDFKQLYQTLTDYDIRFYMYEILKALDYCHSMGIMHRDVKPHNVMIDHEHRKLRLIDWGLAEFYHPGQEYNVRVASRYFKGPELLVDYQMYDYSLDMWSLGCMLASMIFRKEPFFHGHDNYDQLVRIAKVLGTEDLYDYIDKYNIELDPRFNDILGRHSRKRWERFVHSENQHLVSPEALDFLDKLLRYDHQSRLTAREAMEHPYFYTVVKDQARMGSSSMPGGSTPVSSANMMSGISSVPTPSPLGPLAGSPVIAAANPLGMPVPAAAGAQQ
T1 sequence (P67870 whole entry partner): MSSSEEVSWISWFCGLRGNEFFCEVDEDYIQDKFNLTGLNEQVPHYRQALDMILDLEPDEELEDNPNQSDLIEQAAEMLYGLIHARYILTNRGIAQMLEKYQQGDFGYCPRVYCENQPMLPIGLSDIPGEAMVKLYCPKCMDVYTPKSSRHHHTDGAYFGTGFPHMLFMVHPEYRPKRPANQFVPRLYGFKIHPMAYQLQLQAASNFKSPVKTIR

| Compound | IC50 (Casein Kinase 2) | IC50 (Protein Kinase A) | IC50 [1] | IC50 (Insulin Receptor Kinase) |
| --- | --- | --- | --- | --- |
| OCCCNc1cc(-c2ncnc(Nc3cccc(Cl)c3)n2)ccn1 [Compound 2, 3-((4-(4-((3-chlorophenyl)amino)-1,3,5-triazin-2-yl)-2-pyridinyl)amino)-1-propanol] | > 100 µM | > 100 µM | 2.56 µM and 2.57 µM | > 10 µM |
| OCCCNc1cncc(-c2ncnc(Nc3cccc(Cl)c3)n2)c1 [Compound 1, 3-((5-(4-((3-chlorophenyl)amino)-1,3,5-triazin-2-yl)-3-pyridinyl)amino)-1-propanol] | 0.926 µM | > 100 µM | 2.56 µM | 18.2 µM |
